Measurements as given in patent publication US20220033397A1, “PHARMACEUTICAL COMPOUNDS AND THEIR USE AS INHIBITORS OF UBIQUITIN SPECIFIC PROTEASE 19 (USP19)” (ALMAC DISCOVERY LIMITED, priority 2018, published 2022).

biological target: T1, Full-length USP19 (Homo sapiens, UniProt O94966); assay: USP19 fluorescence polarisation (FP) homogeneous assay with Ubiquitin-Lys-TAMRA substrate; format: biochemical; conditions: 2.5 nM USP19, 30 min pre-incubation, average of at least two duplicate experiments
T1 construct: Full-length USP19 was purchased from Boston Biochem (E-576); purchased Boston Biochem E-576
T1 sequence (O94966 1-1318): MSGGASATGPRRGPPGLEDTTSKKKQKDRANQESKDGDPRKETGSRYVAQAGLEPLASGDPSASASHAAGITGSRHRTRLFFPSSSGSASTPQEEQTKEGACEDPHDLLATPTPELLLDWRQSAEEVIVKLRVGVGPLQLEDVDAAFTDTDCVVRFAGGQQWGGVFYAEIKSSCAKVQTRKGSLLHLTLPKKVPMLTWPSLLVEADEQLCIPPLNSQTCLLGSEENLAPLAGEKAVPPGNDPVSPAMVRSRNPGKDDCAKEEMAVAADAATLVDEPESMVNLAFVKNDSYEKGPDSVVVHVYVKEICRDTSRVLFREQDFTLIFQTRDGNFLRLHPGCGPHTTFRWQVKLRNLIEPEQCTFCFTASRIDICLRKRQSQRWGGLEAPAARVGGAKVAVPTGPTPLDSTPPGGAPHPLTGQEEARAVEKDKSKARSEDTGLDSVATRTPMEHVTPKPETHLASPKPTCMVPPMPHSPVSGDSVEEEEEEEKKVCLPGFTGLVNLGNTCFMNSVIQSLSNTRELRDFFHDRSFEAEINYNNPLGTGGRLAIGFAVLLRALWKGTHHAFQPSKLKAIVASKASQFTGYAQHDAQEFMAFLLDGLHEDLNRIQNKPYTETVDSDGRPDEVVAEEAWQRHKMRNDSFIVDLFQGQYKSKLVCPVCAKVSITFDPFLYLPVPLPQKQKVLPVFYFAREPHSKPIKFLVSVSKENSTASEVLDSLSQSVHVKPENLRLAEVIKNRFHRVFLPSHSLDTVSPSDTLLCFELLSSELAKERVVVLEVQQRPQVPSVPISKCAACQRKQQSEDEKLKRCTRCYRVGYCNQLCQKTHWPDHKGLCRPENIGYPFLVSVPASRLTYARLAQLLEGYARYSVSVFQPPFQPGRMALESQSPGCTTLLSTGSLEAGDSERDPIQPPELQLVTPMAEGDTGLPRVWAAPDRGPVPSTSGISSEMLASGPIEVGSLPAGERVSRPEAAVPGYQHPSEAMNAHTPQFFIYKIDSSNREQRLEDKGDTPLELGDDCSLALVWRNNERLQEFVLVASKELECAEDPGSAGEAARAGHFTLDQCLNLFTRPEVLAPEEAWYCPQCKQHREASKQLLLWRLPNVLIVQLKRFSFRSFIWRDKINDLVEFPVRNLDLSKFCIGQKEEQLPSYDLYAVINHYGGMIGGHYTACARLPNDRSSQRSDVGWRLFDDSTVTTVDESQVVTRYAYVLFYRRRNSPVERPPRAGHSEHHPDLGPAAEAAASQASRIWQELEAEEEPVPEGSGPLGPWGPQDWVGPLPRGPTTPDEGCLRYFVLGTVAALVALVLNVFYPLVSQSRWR
Outline: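 Full-length USP19 preincubated 30 min at RT with inhibitor (200 μM to 2 μM series, 8–18 points) before adding 500 nM Ubiquitin-Lys-TAMRA substrate.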

First: O=C(NCc1ccco1)N1CC[C@@](O)(Cn2cnc(-c3ccccc3)cc2=O)C2(CCCC2)C1 [Example 219, (S)—N-(Furan-2-ylmethyl)-10-hydroxy-10-((6-oxo-4-phenylpyrimidin-1(6H)-yl)methyl)-7-azaspiro[4.5]decane-7-carboxamide]
Second: O=C(NCc1cccnc1)N1CCC(O)(Cn2cnc(-c3ccccc3)cc2=O)C2(CCCC2)C1 (stereo not drawn) [Example 199, 10-Hydroxy-10-((6-oxo-4-phenylpyrimidin-1(6H)-yl)methyl)-N-(pyridin-3-ylmethyl)-7-azaspiro[4.5]decane-7-carboxamide]
The IC50 of the first is lower: less than 0.5 µM for the first, 50 to 250 µM for the second.

Compared with `C[C@H](CC(F)(F)F)C(=O)N1CCC(O)(CN2Cc3ncccc3C2=O)C2(CCCC2)C1` (stereo partly drawn) [Example 104, 6-((10-Hydroxy-7-((R)-4,4,4-trifluoro-2-methylbutanoyl)-7-azaspiro[4.5]decan-10-yl)methyl)-6,7-dihydro-5H-pyrrolo[3,4-b]pyridin-5-one], `C[C@H](CC(F)(F)F)C(=O)N1CCC(O)(Cn2ccc3nc(N=S(C)(C)=O)ncc3c2=O)C2(CCCC2)C1` (stereo partly drawn) [Example 62, 2-((Dimethyl(oxo)-λ^6-sulfaneylidene)amino)-6-((10-hydroxy-7-((R)-4,4,4-trifluoro-2-methylbutanoyl)-7-azaspiro[4.5]decan-10-yl)methyl)pyrido[4,3-d]pyrimidin-5(6H)-one] is lower in IC50: 50 to 250 µM for the first, 0.5 to 5 µM for the second. The second is the more potent here.

First: CCCn1c(=O)n(CC2(O)CCN(C(=O)[C@H](C)CC3CCCCC3)CC23CCCC3)c2ccccc21 (stereo partly drawn) [Example 33, 1-((7-((R)-3-Cyclohexyl-2-methylpropanoyl)-10-hydroxy-7-azaspiro[4.5]decan-10-yl)methyl)-3-propyl-1,3-dihydro-2H-benzo[d]imidazol-2-one]
Second: CSc1cn(CC2(O)CCN(C(=O)[C@H](C)CC3CCCCC3)CC23CCCC3)c(=O)cc1-c1ccccc1 (stereo partly drawn) [Example 78, 1-((7-((R)-3-Cyclohexyl-2-methylpropanoyl)-10-hydroxy-7-azaspiro[4.5]decan-10-yl)methyl)-5-(methylthio)-4-phenylpyridin-2(1H)-one]
The IC50 of the first is higher: 5 to 50 µM for the first, less than 0.5 µM for the second. The second is the more potent here.

First: C[C@H](CC1CCCCC1)C(=O)N1CCC(O)(Cn2cc(-n3cccn3)ncc2=O)C(C)(C)C1 (stereo partly drawn) [Example 18, 1-((1-((R)-3-Cyclohexyl-2-methylpropanoyl)-4-hydroxy-3,3-dimethylpiperidin-4-yl)methyl)-5-(1H-pyrazol-1-yl)pyrazin-2(1H)-one]
Second: Cc1cn(CC2(O)CCN(C(=O)[C@H](C)CC3CCCCC3)CC2(C)C)c(=O)cn1 (stereo partly drawn) [Example 21, 1-((1-((R)-3-Cyclohexyl-2-methylpropanoyl)-4-hydroxy-3,3-dimethylpiperidin-4-yl)methyl)-5-methylpyrazin-2(1H)-one]
The IC50 of the first is lower: 0.5 to 5 µM for the first, 5 to 50 µM for the second.

First: CC(CC1CCCCC1)C(=O)N1CCC(O)(CN2CC3(CCCCC3)CC2=O)C(C)(C)C1 (stereo not drawn) [Example 46, 2-((1-(3-Cyclohexyl-2-methylpropanoyl)-4-hydroxy-3,3-dimethylpiperidin-4-yl)methyl)-2-azaspiro[4.5]decan-3-one]
Second: C[C@H](CC1CCCCC1)C(=O)N1CCC(O)(Cn2cc(Br)ncc2=O)C2(CCCC2)C1 (stereo partly drawn) [Example 7, 5-Bromo-1-((7-((R)-3-cyclohexyl-2-methylpropanoyl)-10-hydroxy-7-azaspiro[4.5]decan-10-yl)methyl)pyrazin-2(1H)-one]
The IC50 of the first is higher: 50 to 250 µM for the first, less than 0.5 µM for the second.

`Cn1nccc1-c1ccn(C[C@]2(O)CCN(C(=O)N3CCNC[C@H]3c3ccccc3)CC23CCCC3)c(=O)c1` [Example 328, 1-(((S)-10-Hydroxy-7-((R)-2-phenylpiperazine-1-carbonyl)-7-azaspiro[4.5]decan-10-yl)methyl)-4-(1-methyl-1H-pyrazol-5-yl)pyridin-2(1H)-one] and `CS(=N)(=O)c1cn(CC2(O)CCN(C(=O)N3CCNC[C@H]3c3ccccc3)CC23CCCC3)c(=O)cc1-c1ccccc1` (stereo partly drawn) [Example 189, 1-((10-Hydroxy-7-((R)-2-phenylpiperazine-1-carbonyl)-7-azaspiro[4.5]decan-10-yl)methyl)-5-(S-methylsulfonimidoyl)-4-phenylpyridin-2(1H)-one] cannot be ordered by IC50: less than 0.5 µM for the first, less than 0.5 µM for the second.

`O=C(N1CCC(O)(Cn2cnc(-c3ccccc3)cc2=O)C2(CCOCC2)C1)N1CCNC[C@H]1c1ccccc1` (stereo partly drawn) [Example 321, 3-((5-Hydroxy-2-((R)-2-phenylpiperazine-1-carbonyl)-9-oxa-2-azaspiro[5.5]undecan-5-yl)methyl)-6-phenylpyrimidin-4(3H)-one] and `CC1(C)CN(C(=O)N2CCNC[C@H]2c2ccccc2)CC[C@@]1(O)Cn1cnc(-c2ccccc2)cc1=O` [Example 322, 3-(((S)-4-Hydroxy-3,3-dimethyl-1-((R)-2-phenylpiperazine-1-carbonyl)piperidin-4-yl)methyl)-6-phenylpyrimidin-4(3H)-one] cannot be ordered by IC50: less than 0.5 µM for the first, less than 0.5 µM for the second.

`C[C@H](CC1CCCCC1)C(=O)N1CCC(O)(Cn2cc(-c3cccnc3)ncc2=O)C2(CCCC2)C1` (stereo partly drawn) [Example 19, 1-((7-((R)-3-Cyclohexyl-2-methylpropanoyl)-10-hydroxy-7-azaspiro[4.5]decan-10-yl)methyl)-5-(pyridin-3-yl)pyrazin-2(1H)-one] and `C[C@H](CC1CCCCC1)C(=O)N1CCC(O)(Cn2cnc3c(F)cccc3c2=O)C2(CCCC2)C1` (stereo partly drawn) [Example 131, 3-((7-((R)-3-Cyclohexyl-2-methylpropanoyl)-10-hydroxy-7-azaspiro[4.5]decan-10-yl)methyl)-8-fluoroquinazolin-4(3H)-one] fall in the same range of IC50: 0.5 to 5 µM for the first, 0.5 to 5 µM for the second.

`CC(C)COC(=O)N1CCC(O)(Cn2cc(C(=O)N(C)C)c(-c3ccccc3)cc2=O)C2(CCCC2)C1` (stereo not drawn) [Example 84, Isobutyl 10-((5-(dimethylcarbamoyl)-2-oxo-4-phenylpyridin-1(2H)-yl)methyl)-10-hydroxy-7-azaspiro[4.5]decane-7-carboxylate] and `COCC1COCCN1C(=O)N1CCC(O)(Cn2cnc(-c3ccccc3)cc2=O)C2(CCCC2)C1` (stereo not drawn) [Example 231, 3-((10-Hydroxy-7-(3-(methoxymethyl)morpholine-4-carbonyl)-7-azaspiro[4.5]decan-10-yl)methyl)-6-phenylpyrimidin-4(3H)-one] fall in the same range of IC50: 5 to 50 µM for the first, 5 to 50 µM for the second.

First: C[C@H](CC1CCCCC1)C(=O)N1CCC(O)(Cn2cnc3ccc(Cl)cc3c2=O)C2(CCCC2)C1 (stereo partly drawn) [Example 143, 6-Chloro-3-((7-((R)-3-cyclohexyl-2-methylpropanoyl)-10-hydroxy-7-azaspiro[4.5]decan-10-yl)methyl)quinazolin-4(3H)-one]
Second: O=C(N1CCC(O)(Cn2cnc(-c3ccccc3)cc2=O)C2(CCCC2)C1)N1CCC[C@H]1c1ccon1 (stereo partly drawn) [Example 265, 3-((10-Hydroxy-7-((S)-2-(isoxazol-3-yl)pyrrolidine-1-carbonyl)-7-azaspiro[4.5]decan-10-yl)methyl)-6-phenylpyrimidin-4(3H)-one]
The IC50 of the first is lower: less than 0.5 µM for the first, 0.5 to 5 µM for the second. The first is the more potent here.

Compared with `O=C(N1CC[C@@](O)(Cn2cnc(-c3ccccc3)cc2=O)C2(CCCC2)C1)N1CCCN1c1ccccc1` [Example 299, (S)-3-((10-Hydroxy-7-(2-phenylpyrazolidine-1-carbonyl)-7-azaspiro[4.5]decan-10-yl)methyl)-6-phenylpyrimidin-4(3H)-one], `O=C(N1CC[C@@](O)(Cn2cnc(-c3ccccc3)cc2=O)C2(CCCC2)C1)N1CCOC[C@H]1c1nc2ccccc2[nH]1` [Example 293, 3-(((S)-7-((R)-3-(1H-Benzo[d]imidazol-2-yl)morpholine-4-carbonyl)-10-hydroxy-7-azaspiro[4.5]decan-10-yl)methyl)-6-phenylpyrimidin-4(3H)-one] is higher in IC50: 0.5 to 5 µM for the first, 50 to 250 µM for the second. The first is the more potent here.

`O=C(N1CC[C@@](O)(Cn2cnc(-c3ccccc3OC(F)F)cc2=O)C2(CCCC2)C1)N1CCNC[C@H]1c1ccccc1` [Example 364, 6-(2-(Difluoro-methoxy)phenyl)-3-(((S)-10-hydroxy-7-((R)-2-phenylpiperazine-1-carbonyl)-7-aza-spiro[4.5]decan-10-yl)methyl)pyrimidin-4(3H)-one] and `O=C(NCc1cccc(F)c1F)N1CC[C@@](O)(Cn2cnc(-c3ccccc3)cc2=O)C2(CCCC2)C1` [Example 301, (S)—N-(2,3-Difluorobenzyl)-10-hydroxy-10-((6-oxo-4-phenylpyrimidin-1(6H)-yl)methyl)-7-azaspiro[4.5]decane-7-carboxamide] cannot be ordered by IC50: less than 0.5 µM for the first, less than 0.5 µM for the second.
